From US9198890B2, “Compositions and methods for treating and preventing coronary heart disease” (priority 2011, dated 2015)
“And” between values parts separate entries of the source, which are not always exact repeats. Equal values may be shown once.

Experiments:
LDL-C [1] = assay: PROSPER study: lipid (LDL-C, HDL-C, triglyceride) response to Pravastatin 40 mg/day, overall and by SLCO1B1/LXRA genotype; type: in vivo, human; conditions: for Adjusted mean percent LDL-cholesterol reduction: mean ± S.D.
Method: The effect of SNPs at nucleotide positions 388 (e.g. A>G) and 625 (e.g. T>C) of the SLCO1B1 gene and also at nucleotide position −115 (e.g. G>A) of the LXRA gene on responsiveness to Pravastatin in subjects of various genotypes was assessed by analyzing the correlation of different SNP genotypes with the 6 month and 12 month changes in TC and LDL-C levels in treated subjects, as shown below in Table 5. Neither the presence of the LXRA SNP at nucleotide position −115 nor the SLCO1B1 SNP at nucleotide position 388 were associated with lipid lowering. […] The percentage reductions in LDL-C given are for the 6 month time point (Table 5).
Biochemical and DNA analysis: Total cholesterol (TC), HDL-C, and triglycerides were assessed in subjects after an overnight fast at 6 months, and at 12 months, and LDL-C was calculated by the Friedewald formula, as previously described (Shepherd J et al. (2002) Lancet 360:1623-30). Apolipoprotein B (apoB) was measured only at baseline as described. DNA was isolated from cells from this cohort, and DNA from 5,783 subjects participating in this study was also available. ApoE phenotype was determined on plasma samples by Western blotting, using the method of Havekes et al. in the central laboratory of the Royal Infirmary in Glasgow, Scotland (Havekes L M et al. A rapid micro method for apolipoprotein E phenotyping directly in serum. J Lipid Res (1987) 28:455-63). Subjects were classified according to the presence of apoE2, apoE3, or apoE4 bands on gel blotting (Havekes L M et al. (1987) J Lipid Res 28:455-63).
DNA analysis was conducted by genotyping two single nucleotide polymorphisms (SNPs) of the SLCO1B1 gene—388A>G (rs2306283) and 511T>C (rs4149056)—using standard methods (e.g. Taq Man® SNPs genotyping assays by Applied Biosystems, Foster City, Calif.). The custom assay identification numbers for these analyses were C—1901697—20 and C—30633906—10, respectively. Additionally, DNA analysis was also conducted by genotyping one SNP of the LXRA gene, rs12221497, and the custom assay identification number for this analysis was C—30887860—10. The end points were ascertained after PCR amplification was performed using standard methods (e.g. an Applied Biosystems 7900 HT Sequence Detection System). Genotypes with quality scores below the 95% threshold were repeated and 5% blinded replicates for genotype determinations were performed. In addition, a total of 119 subjects (˜2.2% of the sample size) who had the apoE4/2 phenotype were excluded from these analyses, as well as 246 subjects who had missing apoE phenotype. These subjects were excluded because apoE phenotype or genotype can affect statin-induced LDL-C lowering response, as well as CHD risk, in an allele dependent manner. For example, subjects carrying the apoE4 allele having the greatest response in terms of LDL-C lowering and the highest CHD risk, however, apoE2 and apoE4 phenotype have opposite effects in this regard.
Statistical analysis: Observed genotype frequencies were compared with those expected under Hardy-Weinberg equilibrium using a χ2 test. For data analysis, multivariable analysis of covariance (ANCOVA) was performed to detect associations between the lipoprotein levels at baseline as well as changes in response to the treatment with Pravastatin at 6 months and with SLCO1B1 genotypes adjusted for gender, body mass index, age, alcohol, smoking, diabetes, apoE phenotype, and country of origin, since subjects participating in PROSPER were either from Scotland, Ireland, or the Netherlands. […]

[2] = tested on: elderly individuals at risk of vascular disease; assay: PROSPER study: incidence of CHD death or nonfatal MI on trial; type: in vivo, human; conditions: for Pravastatin HR, hazards ratio (95% confidence intervals), CHD death or nonfatal MI: Pravastatin group
Method: Statistical analysis: Observed genotype frequencies were compared with those expected under Hardy-Weinberg equilibrium using a χ2 test. For data analysis, multivariable analysis of covariance (ANCOVA) was performed to detect associations between the lipoprotein levels at baseline as well as changes in response to the treatment with Pravastatin at 6 months and with SLCO1B1 genotypes adjusted for gender, body mass index, age, alcohol, smoking, diabetes, apoE phenotype, and country of origin, since subjects participating in PROSPER were either from Scotland, Ireland, or the Netherlands. Prevalence at baseline of myocardial infarction (MI) and all types of vascular disease (history of angina, claudication, MI, stroke, transient ischemic attack, peripheral arterial disease surgery, or amputation for vascular disease more than 6 months before study entry) at baseline, as well as incidence of primary endpoints (CHD death or nonfatal MI or fatal non-fatal stroke), and all cardiovascular events (primary endpoints and coronary artery bypass grafting, coronary angioplasty, and peripheral artery surgery or angioplasty), were compared between carriers of different SLCO1B1 SNP genotypes using multivariable logistic regression analysis in all subjects and stratified by gender and treatment. All analyses were fully adjusted for age, gender, country, history of vascular disease, body mass index, history of diabetes, as well as history of hypertension, alcohol use, current smoking, and apoE phenotype. To evaluate the modifying effects of genotypes and gender on the response to treatment, gene-treatment and gene-gender interaction terms were added to the regression models. Lewontin's D value was calculated to assess the linkage disequilibrium (LD) between the two SNPs of interest (Lewontin R C. The interaction of selection and linkage. II. Optimum models. Genetics 1964; 50:757-82). There was no interaction between these SNPs and also no interaction between these SNPs and apoE genotype. All analyses were performed using SAS/STAT and SAS/Genetics [including proc haplotype procedure] (SAS Version 9.1, SAS Institute Inc., Cary, N.C.). A two-sided p<0.05 was considered statistically significant.

[3] = tested on: elderly individuals at risk of vascular disease; assay: PROSPER study: adverse events (myalgia, rhabdomyolysis, creatine kinase)
Text: In this randomized study with 5,804 subjects, 2,913 subjects received placebo and 2,891 received Pravastatin (three of whom refused medication). […] This adverse event rate was very similar to the placebo group where 116 subjects discontinued medication because of non-fatal adverse events. […] At the 3 month visit there no subjects that had creatine kinase levels >10 the upper limits of normal.
Study Subjects: The results and the methodology used in the PROspective Study of Pravastatin in the Elderly at Risk (PROSPER) study have been previously described (see e.g., Shepherd J et al. PROspective Study of Pravastatin in the Elderly at Risk. Pravastatin in elderly individuals at risk of vascular disease (PROSPER): a randomized controlled trial. Lancet (2002) 360:1623-30 and Shepherd J et al. The design of a prospective study of Pravastatin in the Elderly at Risk (PROSPER). PROSPER Study Group. PROspective Study of Pravastatin in the Elderly at Risk. Am J Cardiol (1999) 84:1192-97).
In the present study 2,804 men and 3,000 women between the ages of 70 and 82 with pre-existing vascular disease (n=2,404) or at least one of three major vascular risk factors (diabetes n=575, smoking n=1,433, or hypertension n=3,360) were randomized to Pravastatin 40 mg/day (n=2,891) or placebo (n=2,913) and followed up on for 3.2 years, on average. […] This effect translates into an estimated 30% risk reduction in CHD events over 5 years, which is consistent with other statin trials. […] For subjects that were judged to have good compliance (i.e. taking medication more than 75% of the time), these alterations on the lipid levels were even greater: −34% […], +5% (increased HDL-C), and −13% (decreased triglycerides), respectively. […] Lipid levels were similar at onset of the study in subjects randomized to Pravastatin or placebo.

LDL-C [4] = assay: PROSPER study: lipid (LDL-C, HDL-C, triglyceride) response to Pravastatin 40 mg/day, overall and by SLCO1B1/LXRA genotype; type: in vivo, human; conditions: mean ± S.D.
[5] = single oral dose of 40 mg, 32 subjects; cited from earlier work
[6] = 16 healthy volunteers, multiple-dose; cited from earlier work
[7] = subjects with good compliance (medication more than 75% of the time)

CC[C@H](C)C(=O)O[C@H]1C[C@H](O)C=C2C=C[C@H](C)[C@H](CC[C@@H](O)C[C@@H](O)CC(=O)O)[C@H]21 [Pravastatin, pravastatin]
Adjusted mean percent LDL-cholesterol reduction (LDL-C [1]; 6 months, LXRA 115 G > A genotype AA): −37.4 ± 10.9%
Adjusted mean percent LDL-cholesterol reduction (LDL-C [1]; 6 months, LXRA 115 G > A genotype GA): −36.4 ± 10.7%
Adjusted mean percent LDL-cholesterol reduction (LDL-C [1]; 6 months, LXRA 115 G > A genotype GG): −36.6 ± 10.7%
Adjusted mean percent LDL-cholesterol reduction (LDL-C [1]; 6 months, SLCO1B1 388 A > G genotype AA): −36.7 ± 10.5%
Adjusted mean percent LDL-cholesterol reduction (LDL-C [1]; 6 months, SLCO1B1 388 A > G genotype AG): −36.6 ± 10.7%
Adjusted mean percent LDL-cholesterol reduction (LDL-C [1]; 6 months, SLCO1B1 388 A > G genotype GG): −36.2 ± 11.6%
Adjusted mean percent LDL-cholesterol reduction (LDL-C [1]; 12 months, LXRA 115 G > A genotype AA): −35.3 ± 11.2%
Adjusted mean percent LDL-cholesterol reduction (LDL-C [1]; 12 months, LXRA 115 G > A genotype GA): −35.1 ± 11.6%
Adjusted mean percent LDL-cholesterol reduction (LDL-C [1]; 12 months, LXRA 115 G > A genotype GG): −35.5 ± 12.1%
Adjusted mean percent LDL-cholesterol reduction (LDL-C [1]; 12 months, SLCO1B1 388 A > G genotype AA): −35.9 ± 11.2%
Adjusted mean percent LDL-cholesterol reduction (LDL-C [1]; 12 months, SLCO1B1 388 A > G genotype AG): −35.3 ± 12.3%
Adjusted mean percent LDL-cholesterol reduction (LDL-C [1]; 12 months, SLCO1B1 388 A > G genotype GG): −34.3 ± 12.8%
Adjusted mean percent LDL-cholesterol reduction (LDL-C [1]; 12 months, SLCO1B1 625 T > C genotype CC): −31.8 ± 11.7%
Adjusted mean percent LDL-cholesterol reduction (LDL-C [1]; 12 months, SLCO1B1 625 T > C genotype TC): −34.6 ± 12.5%
HDL-C increase versus baseline (LDL-C [1]; subjects placed on Pravastatin): 5%
triglycerides decrease versus baseline (LDL-C [1]; subjects placed on Pravastatin): 12%
alteration printed as risk reduction for CHD (LDL-C [1]; [7]): −34%
decreased triglycerides (LDL-C [1]; [7]): −13%
increased HDL-C (LDL-C [1]; [7]): +5%
Pravastatin HR, hazards ratio (95% confidence intervals), CHD death or nonfatal MI ([2]; 388 A > G genotype AA (reference genotype)): 1
Pravastatin HR, hazards ratio (95% confidence intervals), CHD death or nonfatal MI ([2]; 388 A > G genotype AG versus AA): 1.13
Pravastatin HR, hazards ratio (95% confidence intervals), CHD death or nonfatal MI ([2]; 388 A > G genotype GG versus AA): 1.12
Pravastatin HR, hazards ratio (95% confidence intervals), CHD death or nonfatal MI ([2]; 625 T > C genotype CC versus TT): 0.64
Pravastatin HR, hazards ratio (95% confidence intervals), CHD death or nonfatal MI ([2]; 625 T > C genotype TC versus TT): 0.99
Pravastatin HR, hazards ratio (95% confidence intervals), CHD death or nonfatal MI ([2]; 625 T > C genotype TT (reference genotype)): 1
estimated risk reduction in CHD events ([2]; over 5 years, translated from the 3.2 year effect): 30%
reported cases of myalgia ([3]; both, human, in vivo, 3.2 years): 36 cases
association of the SLCO1B1 rs4149056 SNP with myalgia ([3]; in vivo): no association
reported cases of rhabdomyolysis ([3]; in vivo): no reported cases
subjects who discontinued medication because of non-fatal adverse events ([3]; of 2,888 subjects started on Pravastatin, 116 in placebo group): 107 subjects
Adjusted mean percent LDL-cholesterol reduction (LDL-C [4]; 6 months, SLCO1B1 625 T > C genotype CC, Pravastatin 40 mg/day): −31.8% and −31.8 ± 12.8%
Adjusted mean percent LDL-cholesterol reduction (LDL-C [4]; 6 months, SLCO1B1 625 T > C genotype TC, Pravastatin 40 mg/day): −36.0% and −36.0 ± 10.4%
Adjusted mean percent LDL-cholesterol reduction (LDL-C [4]; 6 months, SLCO1B1 625 T > C genotype TT, Pravastatin 40 mg/day): −37.0% and −37.0 ± 10.8%
Adjusted mean percent LDL-cholesterol reduction (LDL-C [4]; 12 months, SLCO1B1 625 T > C genotype TT): −35.9 ± 11.8%
areas under the curve of pravastatin blood levels, CC versus wildtype TT SLCO1B1 genotype [5]: significantly greater
plasma pravastatin levels with SLCO1B1 haplotype as compared to other haplotypes [6]: doubling
